{"source": "patent US10682388B2", "about": "“Targeting of PELP1 in cancer therapy” (THE BOARD OF REGENTS OF THE UNIVERSITY OF TEXAS SYSTEM, priority 2014, dated 2020)", "key": {"PELP1": {"target": "PELP1 (Homo sapiens, UniProt Q8IZL8)", "sequence (Q8IZL8 whole entry, the tested form may be a part)": "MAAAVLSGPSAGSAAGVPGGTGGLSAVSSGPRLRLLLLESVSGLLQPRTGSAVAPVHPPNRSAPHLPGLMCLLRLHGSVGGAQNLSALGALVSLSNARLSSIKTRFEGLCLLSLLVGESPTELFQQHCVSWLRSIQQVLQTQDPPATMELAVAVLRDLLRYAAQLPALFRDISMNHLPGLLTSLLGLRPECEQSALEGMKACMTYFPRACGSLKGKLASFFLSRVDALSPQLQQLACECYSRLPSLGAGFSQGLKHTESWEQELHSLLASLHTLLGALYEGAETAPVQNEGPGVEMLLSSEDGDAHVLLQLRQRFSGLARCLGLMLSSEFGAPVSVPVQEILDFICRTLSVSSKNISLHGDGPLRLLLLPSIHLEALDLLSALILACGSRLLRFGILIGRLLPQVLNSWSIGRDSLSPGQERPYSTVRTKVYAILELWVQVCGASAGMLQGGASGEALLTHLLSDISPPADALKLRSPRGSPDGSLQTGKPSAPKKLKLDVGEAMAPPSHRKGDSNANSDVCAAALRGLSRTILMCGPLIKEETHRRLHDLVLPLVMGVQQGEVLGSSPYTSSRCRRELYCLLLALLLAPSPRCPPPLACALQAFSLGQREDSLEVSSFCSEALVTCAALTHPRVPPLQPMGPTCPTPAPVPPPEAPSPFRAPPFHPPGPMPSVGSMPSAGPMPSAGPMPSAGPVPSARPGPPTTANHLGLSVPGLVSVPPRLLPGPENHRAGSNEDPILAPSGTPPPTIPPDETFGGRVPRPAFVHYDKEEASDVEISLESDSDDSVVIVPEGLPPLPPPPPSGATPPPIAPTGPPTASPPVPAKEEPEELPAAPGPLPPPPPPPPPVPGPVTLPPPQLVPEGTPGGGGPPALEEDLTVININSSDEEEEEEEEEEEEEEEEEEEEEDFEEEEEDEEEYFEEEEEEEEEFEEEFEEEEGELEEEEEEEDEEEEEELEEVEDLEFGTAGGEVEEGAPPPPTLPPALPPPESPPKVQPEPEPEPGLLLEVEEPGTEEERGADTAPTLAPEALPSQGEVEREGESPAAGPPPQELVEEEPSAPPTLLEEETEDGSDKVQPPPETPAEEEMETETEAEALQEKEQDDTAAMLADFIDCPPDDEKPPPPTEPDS", "assay": "Peptide pull-down assay, biotin-tagged peptides on avidin beads with nuclear lysates from ZR75 cells", "type": "binding", "conditions": "one hour, FIG. 1D", "description": "FIGS. 1A-D. (FIG. 1A) Diagram for yeast two hybrid screen to identify PELP1 binding peptides. Four regions of PELP1 were tagged with the binding domain and a library of 10^6 random peptides (Clontech) were bound to an activation domain. The number of positive colonies per region of PELP1 are shown in the graph. (FIG. 1B) A proliferation assay was performed with […]1 cells plated in a 96 well plate, treated with peptide every 3 days and absorbance was measured at 7 days. (FIG. 1C) ZR75 were plated in a 6-well plate on coverslips in 8% RPMI and treated with 10 uM FITC labeled peptide for 30, 60, or 120 minutes. They were then fixed with pararformaldehyde, stained for PELP1 (red) and DAPI (blue), and imaged by confocal microscopy to monitor intracellular delivery. (FIG. 1D) ZR75 cells were starved of estrogen for 72 hours and treated with estradiol 10^-7 M for 12 hours. Nuclear lysate was incubated with biotin-tagged peptides bound to avidin beads for one hour. Beads were washed, run on SDS-PAGE gel and probed for PELP1 expression. Input of nuclear lysate is shown as control. Peptides were linked to EZ-Link NHS-Biotin (Thermo Scientific) per manutfacturer's protocol. […] Beads were washed 3× with IP buffer (20 mM HEPES pH 7.9, 20% glycerol, 0.1% triton-x, 100 mM KCl), eluted with SDS-dye, and PELP1 expression was determined by western blotting. […]"}, "[1]": {"target": "T1, PELP1, G9a and ERα complex (Homo sapiens, UniProt Q8IZL8)", "T1 construct": "purified bacterial, full-length PELP1; host or cells: bacteria (PELP1)", "T1 sequence (Q8IZL8 2-1130, one chain of several)": "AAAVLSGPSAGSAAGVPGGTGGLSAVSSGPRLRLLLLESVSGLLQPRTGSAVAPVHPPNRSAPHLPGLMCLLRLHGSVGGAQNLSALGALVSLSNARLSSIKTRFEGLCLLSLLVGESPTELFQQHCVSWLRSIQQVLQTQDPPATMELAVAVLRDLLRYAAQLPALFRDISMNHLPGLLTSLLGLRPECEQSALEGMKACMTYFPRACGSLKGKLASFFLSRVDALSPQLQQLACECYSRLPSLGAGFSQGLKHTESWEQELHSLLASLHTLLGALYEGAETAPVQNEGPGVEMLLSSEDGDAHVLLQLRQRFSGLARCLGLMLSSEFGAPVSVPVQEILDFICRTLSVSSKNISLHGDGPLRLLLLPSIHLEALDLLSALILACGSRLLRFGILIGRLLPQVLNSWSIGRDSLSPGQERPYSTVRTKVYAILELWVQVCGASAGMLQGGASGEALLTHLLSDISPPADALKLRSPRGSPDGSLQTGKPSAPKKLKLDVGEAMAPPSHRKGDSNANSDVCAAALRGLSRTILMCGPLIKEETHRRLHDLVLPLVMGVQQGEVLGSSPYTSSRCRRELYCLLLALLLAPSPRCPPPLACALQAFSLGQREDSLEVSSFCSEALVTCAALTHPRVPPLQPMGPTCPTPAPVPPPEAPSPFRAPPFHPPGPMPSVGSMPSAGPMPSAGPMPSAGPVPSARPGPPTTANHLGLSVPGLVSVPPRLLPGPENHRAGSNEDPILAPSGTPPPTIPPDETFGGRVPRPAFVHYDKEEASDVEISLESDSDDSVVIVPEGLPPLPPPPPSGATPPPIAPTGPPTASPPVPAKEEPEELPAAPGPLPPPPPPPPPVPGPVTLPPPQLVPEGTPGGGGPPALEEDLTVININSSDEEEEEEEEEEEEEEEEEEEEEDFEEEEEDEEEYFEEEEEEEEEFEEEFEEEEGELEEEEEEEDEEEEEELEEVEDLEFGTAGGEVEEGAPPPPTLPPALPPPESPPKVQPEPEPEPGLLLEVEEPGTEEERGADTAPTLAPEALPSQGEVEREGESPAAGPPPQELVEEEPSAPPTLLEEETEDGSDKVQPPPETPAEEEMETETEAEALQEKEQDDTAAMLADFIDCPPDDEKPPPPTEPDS", "assay": "Competition assay for the complex of PELP1, G9a and ERα", "type": "binding", "conditions": "FIG. 2C", "description": "FIGS. 2A-D. (FIG. 2A) Immunoprecipitation was performed on nuclear lysates obtained from […]1 cells grown in 5% DCC for 72 hours and treated with estradiol 10^-7 M for 12 hours. PELP1 was immunoprecipitated and western blotting was performed for PELP1 and G9a expression with IgG as the control. (FIG. 2B) Various fragments of PELP1 bound to glutathione beads were incubated with recombinant G9a for 2 hours. Beads were washed, run on an SDS-PAGE gel and immunoblotted for G9a expression. GST tag alone is shown as control. (FIG. 2C) Recombinant G9a-GST was bound to glutathione beads and incubated with purified PELP1 and peptides for 2 hours. Beads were washed and run on SDS-PAGE gel. (FIG. 2D) ZR75 cells were transfected with ERE-luciferase, PELP1 and/or G9a plasmids and treated with peptide for 24 hours and estradiol 10^-7 M for 12 hours. Relative luciferase activity is shown. Peptides were linked to EZ-Link NHS-Biotin (Thermo Scientific) per manutfacturer's protocol. […] Beads were washed 3× with IP buffer (20 mM HEPES pH 7.9, 20% glycerol, 0.1% triton-x, 100 mM KCl), eluted with SDS-dye, and PELP1 expression was determined by western blotting. […]"}, "[2]": {"test_system": "G9a target genes Pecam1, Serac1, Rb1 and Bmi1 in ZR75 cells", "assay": "qRTPCR of G9a target genes", "type": "cell-based, Human", "conditions": "10 μM, FIG. 3B", "description": "FIGS. 3A-F. (FIG. 3A) Recombinant histones were incubated with G9a with increasing concentrations of PELP1, incubated 1 hour at 30° C. and western blot analysis was performed for expression of H3K9me2. Total histone H3 is shown as the control. (FIG. 3B) qRTPCR analysis of ZR75 and ZRPELP1KD cells treated with 10 μM TAT or PIP1 for 24 hours. G9a target genes PECAM1, SERAC1, RB1 and BMI1 expression is shown as—fold change over actin. (FIG. […]) ChIP-sequencing location analysis of H3K9me2 in control ZR75 model cells. (FIG. 3D) ChIP-sequencing location analysis of H3K9me2 in stable ZR75PELP1KD cells. (FIG. 3E) Ingenuity pathway analysis of genes from binding peaks of ChIP-sequencing of H3K9me2 in stable PELP1 ZR75PELP1KD cells. (FIG. 3F) Image from Integrated Genome Viewer of ChIP-sequencing of H3K9me2 in ZR75 and ZRPELP1KD cells.\nModel cells ZR75 and ZRPELP1KD were grown in 8% DCC media for 72 hours and treated with TAT or PIP1 (10 μM) for […]. RNA was isolated by Trizol and cDNA was synthesized by Superscript III First Strand reverse transcriptase (Invitrogen). qPCR was performed in triplicate by SyberGreen using an Illumina Eco Real-Time PCR System. Gene expression was normalized to actin."}, "[3]": {"test_system": "T98G, LN229 and U251 glioma cells and patient-derived primary GBM cells", "assay": "MTT proliferation assay, glioma cell lines and primary GBM cells", "type": "cell-based", "conditions": "FIGS. 15A-D", "description": "FIGS. 15A-D. PIPs inhibit proliferation of glioma cells. (FIGS. 15A-B) T98G, LN229 and U251 glioma cells were treated with vehicle or varying concentration of PIP1 or PIP3, and proliferation was measured by using the MTT assay. (FIGS. 15C-D) Patient-derived primary GBM cells were treated with PIP1 or PIP3 and proliferation was measured using the MTT assay. Cell proliferation rates were measured by using MTT Cell Viability Assay in 96-well plates. Model cells were seeded in 96-well plates (1×10^3 cells/well) in DMEM or RPMI medium containing 10% serum. After an overnight incubation, cells were treated with varying concentrations of the peptides for 3-7 days and growth inhibition was determined by using traditional MTT assay (Sigma) following manufacturer's instructions."}}, "data": [{"sequence": "GRKKRRQRRRGGMVEFRWSCPGRRKAKA [PIP1]", "values": [{"measurement": "affinity to bind to PELP1 in peptide pull-down", "setting": "PELP1", "result": "higher affinity to bind to PELP1 than PIP2"}, {"measurement": "formation of PELP1, G9a and ERα complex", "setting": "[1]", "result": "prevents the three proteins from forming a complex"}, {"measurement": "expression of G9a target genes Pecam1, Serac1, Rb1 and Bmi1", "setting": "[2]", "result": "decrease in the expression G9a upregulated target genes"}, {"measurement": "concentration of potent activity on glioma proliferation", "setting": "[3]", "result": 50, "unit": "µM"}, {"measurement": "proliferation of glioma cell lines and primary GBM cells", "setting": "[3]; varying concentration", "result": "significantly reduced their proliferation in a dose-dependent manner"}]}]}
